Assay results taken from ChEMBL document CHEMBL5149996, “Structure-Based Optimization and Discovery of M3258, a Specific Inhibitor of the Immunoproteasome Subunit LMP7 (β5i)” (J Med Chem, 2021).

Legend:
[1] = biological target: T1, Proteasome subunit beta type-8 (Homo sapiens, UniProt P28062); test: Inhibition of human 20S immunoproteasome beta-5i subunit using Suc-LLVY-AMC as substrate preincubated for 2 hrs followed by substrate addition and measured after 1 hr by fluorescence intensity assay
T1 sequence (P28062 whole entry): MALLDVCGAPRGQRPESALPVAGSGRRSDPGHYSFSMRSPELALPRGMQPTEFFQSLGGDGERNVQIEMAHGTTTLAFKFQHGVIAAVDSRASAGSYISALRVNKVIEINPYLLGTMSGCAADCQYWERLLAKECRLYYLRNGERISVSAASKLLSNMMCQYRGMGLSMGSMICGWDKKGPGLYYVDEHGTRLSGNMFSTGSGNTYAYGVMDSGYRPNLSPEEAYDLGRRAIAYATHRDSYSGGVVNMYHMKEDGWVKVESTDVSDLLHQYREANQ

[2] = biological target: T2, Proteasome subunit beta type-9 (Homo sapiens, UniProt P28065); test: Inhibition of human 20S immunoproteasome beta-1i subunit using (Ac-PAL)2R110 as substrate preincubated for 2 hrs followed by substrate addition and measured after 1 hr by fluorescence intensity assay
T2 sequence (P28065 whole entry): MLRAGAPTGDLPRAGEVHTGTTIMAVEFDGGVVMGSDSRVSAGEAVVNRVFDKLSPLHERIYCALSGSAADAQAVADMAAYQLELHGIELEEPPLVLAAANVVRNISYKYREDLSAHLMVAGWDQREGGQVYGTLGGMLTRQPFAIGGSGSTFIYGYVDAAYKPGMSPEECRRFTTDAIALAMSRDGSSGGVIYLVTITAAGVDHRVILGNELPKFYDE

[3] = biological target: T3, Proteasome subunit beta type-10 (Homo sapiens, UniProt P40306); test: Inhibition of human 20S immunoproteasome beta-2i subunit using Ac-RLR-AMC as substrate preincubated for 2 hrs followed by substrate addition and measured after 1 hr by fluorescence intensity assay
T3 sequence (P40306 whole entry): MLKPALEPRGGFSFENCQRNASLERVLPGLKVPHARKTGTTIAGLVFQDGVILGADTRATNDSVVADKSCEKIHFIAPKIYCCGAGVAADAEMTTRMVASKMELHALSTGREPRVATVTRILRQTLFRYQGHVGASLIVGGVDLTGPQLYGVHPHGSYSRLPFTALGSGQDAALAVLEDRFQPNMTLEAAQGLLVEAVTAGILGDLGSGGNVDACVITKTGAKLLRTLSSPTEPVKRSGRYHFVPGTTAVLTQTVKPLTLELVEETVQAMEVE

[4] = biological target: T4, Proteasome subunit beta type-7 (Homo sapiens, UniProt Q99436); test: Inhibition of human 20S proteasome beta2 subunit using Ac-RLR-AMC as substrate preincubated for 2 hrs followed by substrate addition and measured after 1 hr by fluorescence intensity assay
T4 sequence (Q99436 whole entry): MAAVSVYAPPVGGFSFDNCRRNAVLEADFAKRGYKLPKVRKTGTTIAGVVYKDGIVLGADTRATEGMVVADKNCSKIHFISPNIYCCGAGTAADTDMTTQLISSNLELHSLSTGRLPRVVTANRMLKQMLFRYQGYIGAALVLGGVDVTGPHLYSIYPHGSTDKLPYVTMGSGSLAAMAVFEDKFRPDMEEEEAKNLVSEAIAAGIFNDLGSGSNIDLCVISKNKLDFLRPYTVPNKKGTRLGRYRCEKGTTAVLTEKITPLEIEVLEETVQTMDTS

[5] = biological target: T5, Proteasome subunit beta type-6 (Homo sapiens, UniProt P28072); test: Inhibition of human 20S […] beta1 subunit using Ac-nLPnLD-AMC as substrate preincubated for 2 hrs followed by substrate addition and measured after 1 hr by fluorescence intensity assay
T5 sequence (P28072 whole entry): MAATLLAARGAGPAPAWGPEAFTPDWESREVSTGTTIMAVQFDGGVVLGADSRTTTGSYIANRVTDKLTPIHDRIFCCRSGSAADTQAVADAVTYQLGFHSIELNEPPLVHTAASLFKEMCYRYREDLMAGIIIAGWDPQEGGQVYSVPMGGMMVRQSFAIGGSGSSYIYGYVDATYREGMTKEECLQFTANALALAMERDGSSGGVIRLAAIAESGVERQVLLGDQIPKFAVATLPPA

[6] = system: Hepatocyte; test: Cytotoxicity against human primary hepatocytes assessed as depletion of ATP content up to 500 uM incubated for 48 to 72 hrs by CellTiter-Glo luminescent assay; type: toxicity, cell-based; settings: time 48-72 hrs
[7] = system: Hepatocyte; test: Cytotoxicity against Wistar Han rat hepatocytes assessed as depletion of ATP content up to 500 uM incubated for 48 to 72 hrs by CellTiter-Glo luminescent assay; type: toxicity, cell-based; settings: time 48-72 hrs
[8] = system: HepG2; test: Cytotoxicity against human HepG2 cells assessed as depletion of ATP content up to 500 uM incubated for 48 to 72 hrs by CellTiter-Glo luminescent assay; type: toxicity, cell-based; settings: hepg2, 500 µM, time 48-72 hrs
[9] = biological target: T6, Proteasome Macropain subunit MB1 (Homo sapiens, UniProt P28074); test: Inhibition of human 20S proteasome beta5 subunit using Suc-LLVY-AMC as substrate preincubated for 2 hrs followed by substrate addition and measured after 1 hr by fluorescence intensity assay
T6 sequence (P28074 whole entry): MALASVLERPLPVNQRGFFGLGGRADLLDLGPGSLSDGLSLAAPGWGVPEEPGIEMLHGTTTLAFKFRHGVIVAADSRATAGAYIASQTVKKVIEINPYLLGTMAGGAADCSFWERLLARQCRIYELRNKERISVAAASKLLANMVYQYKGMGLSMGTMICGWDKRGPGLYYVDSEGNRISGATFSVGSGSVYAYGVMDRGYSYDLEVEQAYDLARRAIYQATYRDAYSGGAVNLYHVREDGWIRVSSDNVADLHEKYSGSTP

[10] = species on record: Homo sapiens; test: Selectivity ratio of IC50 for inhibition of human 20S proteasome beta5 subunit to IC50 for inhibition of human 20S immunoproteasome beta-5i subunit
[11] = Lipophilicity, log P of the compound; type: physicochemical; settings: octanol/water
[12] = species on record: Homo sapiens; test: Selectivity ratio of IC50 for inhibition of 20S proteasome beta5 subunit in human A549 cells to IC50 for inhibition of 20S immunoproteasome beta-5i subunit in human PBMC; type: cell-based
[13] = Oral bioavailability in mouse at 0.5 mg/kg; type: ADME, organism-based; settings: in vivo
[14] = Volume of distribution at steady state in iv dosed mouse; type: ADME, organism-based; settings: in vivo
[15] = Distribution coefficient, log D of the compound; type: physicochemical; settings: octanol/water
[16] = Half life in iv dosed mouse; type: ADME, organism-based; settings: in vivo
[17] = Clearance in iv dosed mouse; type: ADME, organism-based; settings: in vivo
[18] = biological target: T6, Proteasome Macropain subunit MB1; test: Inhibition of 20S proteasome beta5 subunit in human A549 cells using Suc-LLVY-luciferin substrate preincubated for 2 hrs followed by substrate addition and measured after 30 mins by luminometric analysis; type: cell-based
[19] = biological target: T1, Proteasome subunit beta type-8; test: Inhibition of 20S immunoproteasome beta-5i subunit in human PBMC using Ac-ANW-luciferin substrate preincubated for 2 hrs followed by substrate addition and measured after 30 mins by luminometric analysis; type: cell-based
[20] = Kinetic solubility of the compound; type: physicochemical; settings: read-out: Kinetic_solubility
[21] = Intrinsic clearance in mouse liver microsomes measured per mg protein; type: ADME, Microsome; settings: read-out: CLH
[22] = Intrinsic clearance in human liver microsomes measured per mg protein; type: ADME, Microsome
[23] = Clearance in mouse hepatocytes measured per million of cells; type: ADME, cell-based, Hepatocyte; settings: read-out: CLH
[24] = Clearance in human hepatocytes measured per million of cells; type: ADME, cell-based, Hepatocyte; settings: read-out: CLH

SMILES | IC50 [1] [µM] | IC50 [2] [µM] | IC50 [3] [µM] | IC50 [4] [µM] | IC50 [5] [µM] | IC50 [9] [µM] | Ratio IC50 [10] | logP [11] | Ratio IC50 [12] | bioavailability [13] [%] | logD [15] | IC50 [18] [µM] | IC50 [19] [µM] | solubility kinetic [20] [µM] | microsomal CLint [21] [µL/min/mg] | CLH [22] [µL/min/mg] | other results
CC(C)C[C@H](NC(=O)CNC(=O)c1cc(Cl)ccc1Cl)B(O)O | 0.0029 | 0.0027 | 4.87 | > 30 | 0.064 | – | – | – | – | – | – | – | – | – | – | – | –
CC(C)C[C@H](NC(=O)[C@H](Cc1ccccc1)NC(=O)c1cnccn1)B(O)O [BORTEZOMIB] | – | – | – | – | – | – | – | – | – | – | – | – | – | – | – | – | Activity [6]: Toxic; Activity [7]: Toxic; Activity [8]: Toxic
CCc1cccc(C[C@H](NC(=O)[C@H](Cc2ccccc2)NC(=O)c2cnccn2)B(O)O)c1 | 0.0017 | 0.011 | 4 | > 30 | 8.5 | 0.041 | 24 | – | – | – | – | – | – | – | – | – | –
O=C(Cc1ccccc1)N[C@@H](Cc1coc2ccccc12)B(O)O | 0.0021 | – | – | – | – | 0.9 | 419 | 3.5 | 41 | 37 | 1 | 0.573 | 0.014 | > 200 | – | – | Vdss ([14]; iv): 2.25 L/kg; t1/2 ([16]; iv): 22.2 min; CL ([17]; iv): 3 mL/min/kg
N#Cc1ccccc1CC(=O)N[C@@H](C[C@@H]1COc2ccccc21)B(O)O | 0.0031 | – | – | – | – | 2.4 | 758 | 1.75 | 126 | 13 | 1.3 | 2.52 | 0.02 | > 200 | 37 | < 10 | Vd ([14]; read-out: Vdss): 1.88 L/kg; half-life [16]: 42.6 min; clearance [17]: 32.8 mL/min/kg
O=C(N[C@@H](Cc1coc2ccccc12)B(O)O)[C@H]1C[C@@H]2CC[C@H]1O2 | 0.015 | – | – | – | – | 6.5 | 444 | 2.25 | 124 | – | – | 2.44 | 0.0196 | – | 16 | < 10 | hepatocyte CLint [23]: 15.9 µL/min/1e6 cells; hepatocyte CLint [24]: 6.6 µL/min/1e6 cells
